Measured values as given in patent publication US4604237A, “Des-21-threonine-calcitonin” (Armour Pharmaceutical Company, priority 1984, dated 1986).

Experiments:
[1] = literature values; cited from earlier work
[2] = tested on: serum calcium concentration; test: Biological assay of calcitonin analogs in vivo: reduction of serum calcium, 2×2 parallel line assay against synthetic salmon calcitonin standard; set-up: species or system Rats; conditions: independently determined content of the standard
Method: The biological potency of des-21-threonine-salmon calcitonin was determined by comparing the reduction of serum calcium concentration which followed administration by graded doses of des-Thr^21 -SCT and synthetic salmon calcitonin standard. Rats were divided into four groups of seven animals, and each group was assigned at random to a dose of standard or test solution. Low and high doses were chosen from the linear portion of the dose-response curve. For the salmon calcitonin standard, the values were 0.7 and 2.1 ng. peptide/100 g. body weight (BW). This dose approximates 3 and 9 MU/100 g. BW. Peptides were given by subcutaneous injection (0.2 ml/100 g. BW) and blood was withdrawn 1 hour later for serum calcium determination. Sera are processed and analyzed within two hours of collection. […]. Results were analyzed by a 2×2 parallel line assay [Gaddum, J. H., J. Pharm. Pharmacol., 6, 345 (1953)]. The standard salmon calcitonin used was independently determined to contain greater than 4,000 IU/mg. des-Thr^21 -SCT assayed at 5355 IU/mg.

| Compound | hypocalcemic potency [1] | potency of the standard salmon calcitonin used [2] |
| --- | --- | --- |
| eel calcitonin [synthetic eel calcitonin] | around 4300 IU/mg. |  |
| (1,7-α-L-aminosuberic acid)eel calcitonin | about 3400 IU/mg. |  |
| CC(C)C[C@H](NC(=O)[C@H](CCCCN)NC(=O)CNC(=O)[C@H](CC(C)C)NC(=O)[C@@H](NC(=O)[C@@H]1CSSC[C@H](N)C(=O)N[C@@H](CO)C(=O)N[C@@H](CC(N)=O)C(=O)N[C@@H](CC(C)C)C(=O)N[C@@H](CO)C(=O)N[C@@H]([C@@H](C)O)C(=O)N1)C(C)C)C(=O)N[C@@H](CO)C(=O)N[C@@H](CCC(N)=O)C(=O)N[C@@H](CCC(=O)O)C(=O)N[C@@H](CC(C)C)C(=O)N[C@@H](Cc1c[nH]cn1)C(=O)N[C@@H](CCCCN)C(=O)N[C@@H](CC(C)C)C(=O)N[C@@H](CCC(N)=O)C(=O)N[C@H](C(=O)N[C@@H](Cc1ccc(O)cc1)C(=O)N1CCC[C@H]1C(=O)N[C@@H](CCCNC(=N)N)C(=O)N[C@H](C(=O)N[C@@H](CC(N)=O)C(=O)N[C@H](C(=O)NCC(=O)N[C@@H](CO)C(=O)NCC(=O)N[C@H](C(=O)N1CCC[C@H]1C(N)=O)[C@@H](C)O)[C@@H](C)O)[C@@H](C)O)[C@@H](C)O [standard salmon calcitonin, Salmon calcitonin] |  | greater than 4,000 IU/mg |
